Here are results for 28 compounds from ChEMBL document CHEMBL2396612 (Bioorg Med Chem Lett, 2013).

The species named for one experiment is Homo sapiens. The experiment is described as follows: Selectivity index, ratio of IC50 for ACAT1 (unknown origin) to IC50 for ACAT2 (unknown origin).
Experiment [1] concerns the target T1, Sterol O-acyltransferase 1 (Homo sapiens, UniProt P35610).
T1 sequence (P35610 whole entry): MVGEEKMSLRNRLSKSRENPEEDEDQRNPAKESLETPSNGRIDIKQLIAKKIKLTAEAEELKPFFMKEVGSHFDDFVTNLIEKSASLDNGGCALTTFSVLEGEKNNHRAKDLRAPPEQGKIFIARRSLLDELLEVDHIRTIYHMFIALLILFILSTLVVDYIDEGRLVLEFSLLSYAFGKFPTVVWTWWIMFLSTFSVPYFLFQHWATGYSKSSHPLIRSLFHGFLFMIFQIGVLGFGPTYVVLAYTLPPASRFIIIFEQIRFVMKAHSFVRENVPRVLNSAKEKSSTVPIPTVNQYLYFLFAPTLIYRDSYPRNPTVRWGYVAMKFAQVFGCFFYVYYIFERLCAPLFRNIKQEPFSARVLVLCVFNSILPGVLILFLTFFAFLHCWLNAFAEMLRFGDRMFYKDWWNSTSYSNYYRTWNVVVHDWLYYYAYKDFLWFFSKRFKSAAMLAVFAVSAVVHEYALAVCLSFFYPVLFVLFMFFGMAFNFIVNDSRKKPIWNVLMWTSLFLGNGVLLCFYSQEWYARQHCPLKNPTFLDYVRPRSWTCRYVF
The experiment is described as follows: Inhibition of ACAT1 (unknown origin).

Experiment [2] has as its target T2, Sterol O-acyltransferase 2 (Homo sapiens, UniProt O75908).
T2 sequence (O75908 whole entry): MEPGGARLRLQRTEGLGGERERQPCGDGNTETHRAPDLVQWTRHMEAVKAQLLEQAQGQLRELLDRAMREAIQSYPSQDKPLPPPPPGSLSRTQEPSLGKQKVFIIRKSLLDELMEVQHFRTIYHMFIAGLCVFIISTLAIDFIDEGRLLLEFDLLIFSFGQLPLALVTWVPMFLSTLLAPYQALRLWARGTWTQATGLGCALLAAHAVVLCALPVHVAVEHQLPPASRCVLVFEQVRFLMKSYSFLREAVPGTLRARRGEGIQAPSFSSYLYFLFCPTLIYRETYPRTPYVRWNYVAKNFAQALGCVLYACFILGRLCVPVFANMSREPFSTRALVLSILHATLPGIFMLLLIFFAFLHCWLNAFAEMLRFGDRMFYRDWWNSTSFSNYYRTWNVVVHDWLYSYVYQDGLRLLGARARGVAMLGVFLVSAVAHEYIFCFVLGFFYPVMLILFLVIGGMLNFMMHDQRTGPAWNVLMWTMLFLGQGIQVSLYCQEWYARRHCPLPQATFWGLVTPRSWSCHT
The experiment is described as follows: Inhibition of ACAT2 (unknown origin).

As to `Cc1ccc([C@@H]2OC[C@@]3(C)[C@@H]4C[C@H](OC(=O)c5ccc(C#N)cc5)[C@@]5(C)Oc6cc(-c7cccnc7)oc(=O)c6[C@H](O)[C@@H]5[C@@]4(C)CC[C@@H]3O2)c(C)c1`, the Ratio IC50 in the experiment filed under Homo sapiens was determined as 1520. In addition, the results for the half-maximal inhibitory concentration (IC50) in experiment [1] and in experiment [2] were 10 µM and 6.6 nM, respectively.
For the compound `COc1ccccc1C(=O)O[C@H]1C[C@H]2[C@]3(C)CO[C@@H](c4ccccc4)O[C@H]3CC[C@]2(C)[C@H]2[C@@H](O)c3c(cc(-c4cccnc4)oc3=O)O[C@]12C`, the Ratio IC50 in the experiment filed under Homo sapiens turned out to be 10.5. Besides, the IC50 was found to be 3.4 µM in experiment [1] and 320 nM in experiment [2].
For the compound `COc1ccc(C(=O)O[C@H]2C[C@H]3[C@]4(C)CO[C@@H](c5ccccc5)O[C@H]4CC[C@]3(C)[C@H]3[C@@H](O)c4c(cc(-c5cccnc5)oc4=O)O[C@]23C)cc1`, the Ratio IC50 in the experiment filed under Homo sapiens worked out at 493. In addition, the IC50 in experiment [1] is 6.9 µM; in experiment [2], 14 nM.
On the same counts, the results for `C[C@@]12CO[C@@H](c3ccccc3)O[C@H]1CC[C@@]1(C)[C@H]2C[C@H](OC(=O)c2ccc(Br)cc2)[C@@]2(C)Oc3cc(-c4cccnc4)oc(=O)c3[C@H](O)[C@H]12` are 690, 6.9 µM and 10 nM.
For `CCCCC(=O)O[C@H]1C[C@H]2[C@]3(C)CO[C@@H](c4ccccc4)O[C@H]3CC[C@]2(C)[C@H]2[C@@H](O)c3c(cc(-c4cccnc4)oc3=O)O[C@]12C`, in that order: 200, 4 µM and 20 nM.
On the same counts, the results for `C[C@@]12CO[C@@H](c3ccccc3)O[C@H]1CC[C@@]1(C)[C@H]2C[C@H](OC(=O)c2cccc(C#N)c2)[C@@]2(C)Oc3cc(-c4cccnc4)oc(=O)c3[C@H](O)[C@H]12` are 73.3, 2.2 µM and 30 nM.
Consider `C[C@@]12CO[C@@H](c3ccccc3)O[C@H]1CC[C@@]1(C)[C@H]2C[C@H](OC(=O)c2ccc([N+](=O)[O-])cc2)[C@@]2(C)Oc3cc(-c4cccnc4)oc(=O)c3[C@H](O)[C@H]12`, for which the Ratio IC50 in the experiment filed under Homo sapiens turned out to be 232. Moreover, the IC50 in experiment [1] came to 13.9 µM; in experiment [2], 60 nM.
For `COc1cccc(C(=O)O[C@H]2C[C@H]3[C@]4(C)CO[C@@H](c5ccccc5)O[C@H]4CC[C@]3(C)[C@H]3[C@@H](O)c4c(cc(-c5cccnc5)oc4=O)O[C@]23C)c1`, in that order: 61.4, 4.3 µM and 70 nM.
For `Cc1ccc([C@@H]2OC[C@@]3(C)[C@@H]4C[C@H](OC(=O)c5ccc(C#N)cc5)[C@@]5(C)Oc6cc(-c7cccnc7)oc(=O)c6[C@H](O)[C@@H]5[C@@]4(C)CC[C@@H]3O2)cc1`, in that order: 836, 8.11 µM and 9.7 nM.
For `C[C@@]12CO[C@@H](c3ccccc3)O[C@H]1CC[C@@]1(C)[C@H]2C[C@H](OC(=O)c2ccc(Cl)cc2)[C@@]2(C)Oc3cc(-c4cccnc4)oc(=O)c3[C@H](O)[C@H]12`, in the experiment listed under Homo sapiens, the Ratio IC50 worked out at 644. Also, the half-inhibitory concentration (IC50) in experiment [1] was found to be 5.8 µM; in experiment [2], 9 nM.
With `Cc1ccccc1[C@@H]1OC[C@@]2(C)[C@@H]3C[C@H](OC(=O)c4ccc(C#N)cc4)[C@@]4(C)Oc5cc(-c6cccnc6)oc(=O)c5[C@H](O)[C@@H]4[C@@]3(C)CC[C@@H]2O1`, the Ratio IC50 in the experiment filed under Homo sapiens was over 6160. The IC50 in experiment [1] is over 72.8 µM; in experiment [2], 11.8 nM.
On to `C[C@@]12CO[C@@H](c3ccccc3F)O[C@H]1CC[C@@]1(C)[C@H]2C[C@H](OC(=O)c2ccc(C#N)cc2)[C@@]2(C)Oc3cc(-c4cccnc4)oc(=O)c3[C@H](O)[C@H]12`, for which it took 6.8 nM to reach half-maximal inhibition in experiment [2] (IC50).
On to `C[C@@]12CO[C@@H](c3ccccc3)O[C@H]1CC[C@@]1(C)[C@H]2C[C@H](OC(=O)c2cccc(Cl)c2)[C@@]2(C)Oc3cc(-c4cccnc4)oc(=O)c3[C@H](O)[C@H]12`, for which the Ratio IC50 in the experiment listed under Homo sapiens worked out at 142. Further, the concentration for half-maximal inhibition (IC50) amounted to 2.7 µM in experiment [1] and 19 nM in experiment [2].
For `C[C@@]12CO[C@@H](c3ccccc3)O[C@H]1CC[C@@]1(C)[C@H]2C[C@H](OC(=O)c2ccc(F)cc2)[C@@]2(C)Oc3cc(-c4cccnc4)oc(=O)c3[C@H](O)[C@H]12`, in that order: 886, 6.2 µM and 7 nM.
In the case of `Cc1ccccc1[C@@H]1OC[C@@]2(C)[C@@H]3C[C@H](OC(=O)c4ccc(F)cc4)[C@@]4(C)Oc5cc(-c6cccnc6)oc(=O)c5[C@H](O)[C@@H]4[C@@]3(C)CC[C@@H]2O1`, the 50% inhibitory concentration (IC50) in experiment [2] stood at 23 nM. In other words, the double-digit nanomolar range.
Turning to `C[C@@]12CO[C@@H](c3ccccc3)O[C@H]1CC[C@@]1(C)[C@H]2C[C@H](OC(=O)c2ccc(C=O)cc2)[C@@]2(C)Oc3cc(-c4cccnc4)oc(=O)c3[C@H](O)[C@H]12`, the Ratio IC50 in the experiment filed under Homo sapiens amounted to 183. The values for the half-maximal inhibitory concentration (IC50) in experiment [1] and in experiment [2] were 5.5 µM and 30 nM, respectively.
`C[C@@]12CO[C@@H](c3ccccc3)O[C@H]1CC[C@@]1(C)[C@H]2C[C@H](OC(=O)c2ccccc2C#N)[C@@]2(C)Oc3cc(-c4cccnc4)oc(=O)c3[C@H](O)[C@H]12` had an IC50 in experiment [2] of 320 nM. This lies in the sub-micromolar range.
`C[C@@]12CO[C@@H](c3ccccc3)O[C@H]1CC[C@@]1(C)[C@H]2C[C@H](OC(=O)c2cccc(Br)c2)[C@@]2(C)Oc3cc(-c4cccnc4)oc(=O)c3[C@H](O)[C@H]12`: the Ratio IC50 in the experiment filed under Homo sapiens amounted to 143. In addition, the results for the half-inhibitory concentration (IC50) in experiment [1] and in experiment [2] were 4.3 µM and 30 nM, respectively.
For `COc1ccccc1[C@@H]1OC[C@@]2(C)[C@@H]3C[C@H](OC(=O)c4ccc(C#N)cc4)[C@@]4(C)Oc5cc(-c6cccnc6)oc(=O)c5[C@H](O)[C@@H]4[C@@]3(C)CC[C@@H]2O1`, in that order: over 1930, over 71 µM and 36.8 nM.
On the same counts, the results for `C[C@@]12CO[C@@H](c3ccccc3)O[C@H]1CC[C@@]1(C)[C@H]2C[C@H](OC(=O)c2ccc(C#N)cc2)[C@@]2(C)Oc3cc(-c4cccnc4)oc(=O)c3[C@H](O)[C@H]12` are 467, 2.8 µM and 6 nM.
As for `C[C@@]12CO[C@@H](c3ccccc3)O[C@H]1CC[C@@]1(C)[C@H]2C[C@H](OC(=O)c2ccccc2F)[C@@]2(C)Oc3cc(-c4cccnc4)oc(=O)c3[C@H](O)[C@H]12`, the Ratio IC50 in the experiment listed under Homo sapiens came out at 54. The values for the concentration for half-maximal inhibition (IC50) in experiment [1] and in experiment [2] were 2.7 µM and 50 nM, respectively.
On to `C[C@@]12CO[C@@H](c3cccc4ccccc34)O[C@H]1CC[C@@]1(C)[C@H]2C[C@H](OC(=O)c2ccc(C#N)cc2)[C@@]2(C)Oc3cc(-c4cccnc4)oc(=O)c3[C@H](O)[C@H]12`, for which the Ratio IC50 in the experiment filed under Homo sapiens is over 2980. In addition, the IC50 was over 69.1 µM in experiment [1] and 23.2 nM in experiment [2].
On the same counts, the results for `Cc1cccc([C@@H]2OC[C@@]3(C)[C@@H]4C[C@H](OC(=O)c5ccc(C#N)cc5)[C@@]5(C)Oc6cc(-c7cccnc7)oc(=O)c6[C@H](O)[C@@H]5[C@@]4(C)CC[C@@H]3O2)c1` are 478, 3.73 µM and 7.8 nM.
For `C[C@@]12CO[C@@H](c3ccccc3)O[C@H]1CC[C@@]1(C)[C@H]2C[C@H](OC(=O)c2ccccc2Cl)[C@@]2(C)Oc3cc(-c4cccnc4)oc(=O)c3[C@H](O)[C@H]12`, in that order: 16.2, 1.78 µM and 110 nM.
For `C[C@@]12CO[C@@H](c3ccccc3)O[C@H]1CC[C@@]1(C)[C@H]2C[C@H](OC(=O)c2cccc(F)c2)[C@@]2(C)Oc3cc(-c4cccnc4)oc(=O)c3[C@H](O)[C@H]12`, in that order: 231, 3 µM and 13 nM.
With `Cc1ccc([C@@H]2OC[C@@]3(C)[C@@H]4C[C@H](OC(=O)c5ccc(F)cc5)[C@@]5(C)Oc6cc(-c7cccnc7)oc(=O)c6[C@H](O)[C@@H]5[C@@]4(C)CC[C@@H]3O2)cc1`, the Ratio IC50 in the experiment filed under Homo sapiens is 367. Besides, the half-maximal inhibitory concentration (IC50) in experiment [1] is 5.54 µM; in experiment [2], 15.1 nM.
For `Cc1cccc([C@@H]2OC[C@@]3(C)[C@@H]4C[C@H](OC(=O)c5ccc(F)cc5)[C@@]5(C)Oc6cc(-c7cccnc7)oc(=O)c6[C@H](O)[C@@H]5[C@@]4(C)CC[C@@H]3O2)c1`, in that order: 200, 9.51 µM and 47.6 nM.
Turning to `CC(=O)OC[C@@]1(C)[C@@H]2C[C@H](OC(=O)c3ccc(C#N)cc3)[C@@]3(C)Oc4cc(-c5cccnc5)oc(=O)c4[C@H](O)[C@@H]3[C@@]2(C)CC[C@@H]1OC(C)=O`, in the experiment filed under Homo sapiens, the Ratio IC50 was 4620.
